We go through three compounds from US20040260084A1, “Novel c-3 s/o-and s/n formaldehe acetal derivatives of cephalosporins and their use as antibotics” (priority 2001, published 2004).

Data set [1] is described as follows: Chemical stability, half-life of hydrolysis by UV spectroscopy. The format is physicochemical. The note with it: 37° C. The protocol: The half-lives (h) of hydrolysis was determined at 37° C. by UV spectroscopy in physiological phosphate buffer and in physiological NaCl solution containing 0.01 N HCl.
The next data set concerns Staph. aureus resistant. Description: MIC, agar dilution (DIFCO Bacto Nutrient Agar). The format is cell-based. On the procedure:
(§1) The plates were then inoculated with a bacterial suspension obtained by diluting an overnight culture (37° C.) in DIFCO Bacto Nutrient Broth (pH 6.8) with sterile 1% NaCl (1:1000) using a 19 pin inoculator (Mast Diagnostics). MIC's […] were determined 18 h after incubation at 37° C.
(§2) Inoculum effect after inoculation with an non-diluted overnight culture (in comparison to Table 1). MIC's (μ/ml) were determined 18 h after incubation at 37° C.

A further data set deals with Staph. aureus DSM 1104. As to the kind of experiment: MIC, agar dilution (DIFCO Bacto Nutrient Agar). The format is cell-based. The protocol: as §1, §2
(In general: Agar dilution tests growth on a series of plates holding different concentrations.)

Data set [2] has as its system Escherichia coli DSM 1103. Description: MIC, agar dilution (DIFCO Bacto Nutrient Agar). In kind it is cell-based. The protocol: as §1, §2
The subject of a further data set is Staph. aureus 25768. Description: MIC, agar dilution (DIFCO Bacto Nutrient Agar). The format is cell-based. On the procedure: as §1, §2
For a further data set, the system named is Escherichia coli TEM 1. As to the kind of experiment: MIC, agar dilution (DIFCO Bacto Nutrient Agar). In kind it is cell-based. On the procedure: as §1, §2
The subject of the next data set is E. coli 3981 TEM-1. As to the kind of experiment: In vivo activity, experimental systemic infection in mice. The settings on record: Escherichia coli. The protocol: In vivo activity (ED50) was determined. Mice were infected intraperitoneally with ca. […] of E. coli 3981 TEM-1. Untreated animals died within 48 h after infection. Compounds were administered by oral or subcutaneous route a first time 10 min after infection and a second time 4 h later. The 50% effective dose (ED50) was calculated by the Spearman-Kärber method from the percentages of animals surviving to day 7 at each dose.

Data set [3] in a line: Blood serum stability, agar diffusion test with Escherichia coli TEM 1. In kind it is in vitro ADME. The settings on record: sterile bovine serum (OXOID), 37° C. On the procedure:
The stability in blood serum was determined microbiologically using agar diffusion test with Escherichia coli TEM 1. The compounds I were incubated with sterile bovine serum (OXOID) at 37° C. At 0 h, 1 h, 2 h and 4 h intervals aliquot samples were spotted and remaining amounts of active antibiotic were calculated from the inhibition diameters (18-30 mm) in comparison with those (15-30 mm) obtained with 30 μg, 15 μg, 7.5μ and 3.75 μg of antibiotic.

The mark [4] stands for this setting: pH 2, physiological NaCl solution containing 0.01 N HCl.
[5] abbreviates: pH 7.4, physiological phosphate buffer.
The mark [6] stands for this setting: inoculum ca. 10^4, 18 h at 37° C.
Where [7] appears, read: inoculum ca. 10^7 (non-diluted overnight culture), 18 h at 37° C.
The mark [8] stands for this setting: Staph. aureus DSM 1104, inoculum ca. 10^4, 18 h at 37° C.
Setting [9] is: Staph. aureus DSM 1104, inoculum ca. 10^7 (non-diluted overnight culture), 18 h at 37° C.
Where [10] appears, read: Escherichia coli DSM 1103, inoculum ca. 10^4, 18 h at 37° C.
Setting [11] is: Escherichia coli DSM 1103, inoculum ca. 10^7 (non-diluted overnight culture), 18 h at 37° C.
The mark [12] stands for this setting: Staph. aureus 25768, inoculum ca. 10^4, 18 h at 37° C.
The mark [13] stands for this setting: Staph. aureus 25768, inoculum ca. 10^7 (non-diluted overnight culture), 18 h at 37° C.
Where [14] appears, read: Escherichia coli TEM 1, inoculum ca. 10^4, 18 h at 37° C.
[15] abbreviates: Escherichia coli TEM 1, inoculum ca. 10^7 (non-diluted overnight culture), 18 h at 37° C.

`COCSC1=C(C(=O)[O-])N2C(=O)[C@@H](NC(=O)/C(=N\OC)c3csc(N)n3)[C@H]2SC1.[K+]` [Cephalosporin 1a, potassium (6R,7R)-7-[(Z)-2-(2-amino-thiazol-4-yl)-2-methoximino-acetylamino]-3methoxymethylthio-8-oxo-5-thia-1-aza-bicyclo[4.2.0]oct-2-ene-2-carboxylate]: the values for the half-life in data set [1] (setting [4]), in data set [1] (setting [5]) and in data set [3] were 15.6 days, 16.9 days and 0.2 days, respectively. Moreover, the MIC in the data set on Staph. aureus resistant (setting [6]) is reported as 2 pig/ml; against Staph. aureus resistant (setting [7]), 4 μ/ml; against Staph. aureus DSM 1104 (setting [8]), 0.5 pig/ml; with Staph. aureus DSM 1104 (setting [9]), 0.5 μ/ml; in data set [2] (setting [10]), 1 pig/ml; in data set [2] (setting [11]) it was 1 μ/ml. Further, the MIC against Staph. aureus 25768 (setting [12]) is listed as 16 pig/ml; with Staph. aureus 25768 (setting [13]), 32 μ/ml; against Escherichia coli TEM 1 (setting [14]), 2 pig/ml; against Escherichia coli TEM 1 (setting [15]), 2 μ/ml. For the same compound, the 50% effective dose (ED50) – broadly, the dose at which the effect has come halfway, by size or by number of responders – with E. coli 3981 TEM-1 (3981TEM1, po) was 8.35 mg/kg; with E. coli 3981 TEM-1 (3981TEM1, sc), 0.84 mg/kg.
As to `COCSC1=C(C(=O)[O-])N2C(=O)[C@@H](NC(=O)/C(=N\OCC(=O)[O-])c3csc(N)n3)[C@H]2SC1.[K+].[K+]` [Cephalosporin 1b, dipotassium (6R,7R)-7-[(Z)-2-(2-amino-thiazol-4-yl)-2-carboxy-methoximino-acetylamino]-3-methoxymethylthio-8-oxo-5-thia-1-aza-bicyclo[4.2.0]oct-2-ene-2-carboxylate], the half-life (usually how long it takes for the measured level to halve) was 16.6 days in data set [1] (setting [4]), 17.5 days in data set [1] (setting [5]) and 0.113 days in data set [3]. Also, the MIC turned out to be 16 pig/ml against Staph. aureus resistant (setting [6]); 32 μ/ml against Staph. aureus resistant (setting [7]); 4 pig/ml in the data set with Staph. aureus DSM 1104 (setting [8]); 4 μ/ml against Staph. aureus DSM 1104 (setting [9]); 2 pig/ml in data set [2] (setting [10]); 2 μ/ml in data set [2] (setting [11]). Moreover, the MIC was greater than 64 pig/ml with Staph. aureus 25768 (setting [12]), greater than 64 μ/ml in the data set with Staph. aureus 25768 (setting [13]), 2 pig/ml with Escherichia coli TEM 1 (setting [14]) and 2 μ/ml with Escherichia coli TEM 1 (setting [15]).
Regarding `COCSC1=C(C(=O)O)N2C(=O)[C@@H](NC(=O)[C@H](N)c3ccccc3)[C@H]2SC1` [Cephalosporin 1c, (2′R,6R,7R)-7-(2′amino-2′-phenylacetamino)-3-methoxymethylthio-8-oxo-5-thia-1-aza-bicyclo[4.2.0]oct-2-ene-2-carboxylic acid], the figures for the half-life in data set [1] (setting [4]) and in data set [1] (setting [5]) were 7.12 days and 7.54 days, respectively. Moreover, the MIC with Staph. aureus resistant (setting [6]) is given as 2 pig/ml; in the data set with Staph. aureus resistant (setting [7]) it was 8 μ/ml; against Staph. aureus DSM 1104 (setting [8]), 0.2 pig/ml; in the data set on Staph. aureus DSM 1104 (setting [9]) it was 0.5 μ/ml; in data set [2] (setting [10]), 4 pig/ml; in data set [2] (setting [11]), 4 μ/ml. The MIC was 8 pig/ml in the data set with Staph. aureus 25768 (setting [12]), 32 μ/ml in the data set with Staph. aureus 25768 (setting [13]), greater than 64 pig/ml against Escherichia coli TEM 1 (setting [14]) and 32 μ/ml against Escherichia coli TEM 1 (setting [15]).
